Results on one compound are retold here after ChEMBL document CHEMBL4402605, “A Chemical Switch for Transforming a Purine Agonist for Toll-like Receptor 7 to a Clinically Relevant Antagonist” (J Med Chem, 2020).

In general, share remaining refers to the share of the starting amount still present when the sample was taken. A word on the AUC(0-t): it is exposure summed from dosing to a finite time, without extrapolation to infinity. Read a high AUC(0-t) as more exposure. What is called IC50 is the concentration at which inhibition is half-maximal. A high value points to weaker potency in that assay.

Active and inactive are the calls of the source. The calls are words filed in the database; no cut-off is given here.

Data set [1] is described as follows: in vitro. As to conditions: mouse, plasma.
Description: Stability of the compound in mouse plasma assessed as parent compound remaining at 25 uM measured after 2 hrs by LC-MS/MS analysis
Data set [2] deals with Mus musculus. As to the kind of experiment: Protection against imiquimod-induced C57BL/6 mouse model of psoriasis assessed as suppression of vascular dilatation at 15 mg/kg, po administered via gavage treated 1 day prior to imiquimod application and subsequent daily dosing for 7 consecutive days and measured post-last dose by H and E staining based histopathological analysis. Format: functional.

A short description of data set [3]: AUC (0 to 24 hrs) in C57BL/6 mouse at 15 mg/kg, iv by LC-MS/MS analysis. Format: ADME, organism-based. Also on record: time < 24 hr, dose 15 mg/kg, route intravenous. As to conditions: in vivo.
A short description of data set [4]: Toxicity in C57BL/6 mouse assessed as liver inflammation at 15 mg/kg, po administered once daily via gavage for 7 consecutive days and measured post-last dose by H and E staining based histomorphological analysis. The class given is organism-based. The conditions noted are these: in vivo.
Data set [5] relates to Mus musculus. As to the kind of experiment: Protection against imiquimod-induced C57BL/6 mouse model of psoriasis assessed as reduction in IFIT1 mRNA expression at 15 mg/kg, po administered via gavage treated 1 day prior to imiquimod application and subsequent daily dosing for 7 consecutive days and measured post-last dose by SYBR green dye based qPCR analysis. The class given is functional, organism-based. In general terms: Quantitative PCR measures a nucleic acid by following its amplification.

For data set [6], the target named is T1, Toll-like receptor 7 (Homo sapiens) (UniProt Q9NYK1).
T1 sequence (whole entry): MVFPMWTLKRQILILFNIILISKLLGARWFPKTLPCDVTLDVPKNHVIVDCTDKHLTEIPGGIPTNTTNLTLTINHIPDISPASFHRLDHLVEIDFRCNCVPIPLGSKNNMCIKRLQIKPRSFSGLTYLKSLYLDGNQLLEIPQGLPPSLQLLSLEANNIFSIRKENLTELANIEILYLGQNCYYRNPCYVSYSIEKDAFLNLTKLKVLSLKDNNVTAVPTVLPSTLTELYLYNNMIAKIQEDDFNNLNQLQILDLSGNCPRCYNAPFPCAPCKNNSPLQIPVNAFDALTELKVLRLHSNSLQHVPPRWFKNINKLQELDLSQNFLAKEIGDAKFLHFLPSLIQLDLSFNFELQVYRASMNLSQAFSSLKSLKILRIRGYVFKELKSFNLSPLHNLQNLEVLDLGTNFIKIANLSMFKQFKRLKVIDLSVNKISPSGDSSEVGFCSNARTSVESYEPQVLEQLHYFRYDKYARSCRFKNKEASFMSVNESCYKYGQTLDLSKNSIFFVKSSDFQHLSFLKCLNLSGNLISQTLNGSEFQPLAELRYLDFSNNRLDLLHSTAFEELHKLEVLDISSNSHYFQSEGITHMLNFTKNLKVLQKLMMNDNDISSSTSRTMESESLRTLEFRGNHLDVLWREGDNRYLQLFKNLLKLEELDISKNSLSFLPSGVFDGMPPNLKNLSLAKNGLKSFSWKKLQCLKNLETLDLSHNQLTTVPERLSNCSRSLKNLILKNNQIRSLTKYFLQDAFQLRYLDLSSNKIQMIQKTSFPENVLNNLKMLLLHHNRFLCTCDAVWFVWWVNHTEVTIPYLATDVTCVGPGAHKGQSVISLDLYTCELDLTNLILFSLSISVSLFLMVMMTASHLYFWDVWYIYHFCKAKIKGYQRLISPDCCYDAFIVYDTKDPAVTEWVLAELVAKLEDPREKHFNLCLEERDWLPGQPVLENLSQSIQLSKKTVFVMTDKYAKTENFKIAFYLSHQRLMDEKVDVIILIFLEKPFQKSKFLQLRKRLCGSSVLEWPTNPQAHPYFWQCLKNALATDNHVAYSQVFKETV
As to the kind of experiment: Antagonist activity at TLR7 in human PBMC assessed as inhibition of gardiquimod-induced TNFalpha production at 5 uM preincubated for 1 hr followed by gardiquimod stimulation and measured after overnight incubation by ELISA. A general note: In an ELISA, binding on a coated surface is turned into a signal by an enzyme label.

The subject of data set [7] is Mus musculus. As to the kind of experiment: Protection against imiquimod-induced C57BL/6 mouse model of psoriasis assessed as suppression of acanthosis at 15 mg/kg, po administered via gavage treated 1 day prior to imiquimod application and subsequent daily dosing for 7 consecutive days and measured post-last dose by H and E staining based histopathological analysis. The class given is functional.

Data set [8] is described as follows: Clearance in mouse liver microsomes at 100 uM by LC-MS/MS analysis relative to hepatic blood flow. (Liver microsomes are vesicles of endoplasmic reticulum, rich in cytochrome P450 enzymes.)
The target in data set [9] is T2, Toll-like receptor 7 (Homo sapiens, UniProt Q9NYK1).
T2 sequence (Q9NYK1 whole entry): T1 sequence (whole entry)
Description: Antagonist activity at human TLR7 expressed in HEK-Blue cells assessed as inhibition of CL264-induced NFkappaB activation by measuring reduction in SEAP level after overnight incubation using qunati-blue reagent by SEAP reporter gene-based spectrophotometric method

Data set [10] deals with Mus musculus. As to the kind of experiment: Protection against imiquimod-induced C57BL/6 mouse model of psoriasis assessed as reduction in MX2 mRNA expression at 15 mg/kg, po administered via gavage treated 1 day prior to imiquimod application and subsequent daily dosing for 7 consecutive days and measured post-last dose by SYBR green dye based qPCR analysis. The class given is functional, organism-based.

`CCN1CCN(CCCn2cnc3c(N4CCN(CC)CC4)ncnc32)CC1` yielded a fraction remaining at 2 h, 25 µM in [1] of 99.2%. In addition, the Activity is 100% in data set [2], “Non-Toxic” in [4] and 100% in data set [7]. Moreover, the AUC(0-t) at 24 h in data set [3] came to 50900 ng·h/mL. In addition, the result in data set [5] and in data set [10] was Active. In [6], the inhibition entry was “Active”. For the same compound, the hepatic extraction ratio at 100 µM in [8] stood at 0.144. Also, in data set [9], inhibition was half-maximal at 4.7 µM (IC50).
